The subject of one assay is NCI-H295R cells. Kind of assay: Proliferation inhibitory action on NCI-H295R (CellTiter-Glo, 7 days). Format: cell-based, human. Here is the method:
DMSO solutions of each compound were serially diluted with DMSO using a D300e Digital Dispenser (TECAN), and added to a 384-well plate (Thermo Fisher Scientific Inc.). NCI-H295R cells were seeded in a 384-well plate at 2×10^3 cells/40 μL/well and cultured for 7 days in a 37° C., 5% CO2 incubator. […] On the first day of culture (day 0) and the seventh day of culture (day 7), 10 μL/well of CellTiter-Glo (registered trademark) 2.0 Assay (Promega) was added, and the luminescence signal was detected using a multimode plate reader (EnVision, PerkinElmer). The cell proliferation rate was calculated from the luminescence amount on the day of compound addition (CO), the luminescence amount of the compound-free group after 7 days of culture (C7), and the luminescence amount of the compound-added group (T7), based on the following formula.
On the technique in general: Cellular ATP, detected with luciferase, serves as a proxy for viable cell number.

A further assay concerns the target T1, SF-1 (Homo sapiens, UniProt Q13285).
T1 construct: NCI-H295R SF-1-HiBiT cells with HiBiT tag knocked in at the endogenous SF1 locus; host or cells: NCI-H295R SF-1-HiBiT (knock-in at endogenous locus)
Kind of assay: SF1 degradation induction in NCI-H295R SF-1-HiBiT cells (HiBiT DC50). Format: cell-based. The settings on record: 24 hr, concentration that induces 50% degradation of SF-1. The method, then: NCI-H295R SF-1-HiBiT cells were seeded in a 384-well plate (Thermo Fisher Scientific Inc.) at 1×10^4 cells/50 μL/well and cultured at 37° C. in a 5% CO2 incubator for 24 hr. DMSO solutions of each compound were serially diluted with DMSO using a D300e Digital Dispenser (TECAN), added to a 384-well plate, and cultured in a 5% CO2 incubator at 37° C. for 24 hr. […] After completion of culture, the medium was discarded, and Nano-Glo (registered trade mark) HiBiT Lytic Detection System (Promega, Cat. No. N3040) was added at 20 μL/well and stirred with a plate mixer. Luminescence signals were then detected using a multimode plate reader (EnVision Xcite, PerkinElmer). The SF-1 protein degradation rate was calculated from the amount of luminescence (C) in the compound-free group and the amount of luminescence (T) in the compound-added group, based on the following formula.
The obtained data was analyzed using GraphPad Prism9 (GraphPad Software Inc.) or Genedata Screener (Genedata AG) to calculate the concentration that induces 50% degradation of SF-1 (DC50 value).
A general note: With HiBiT, luminescence reflects the tagged protein that the partner subunit can reach.

Read-outs that look alike come from different tables or passages of the source.

Consider `COc1ccc([C@]2(CCN(Cc3ccc(C4=CC[C@H](CN5CCN(C(=O)c6ccc7c(c6)n(C)c(=O)n7[C@H]6CCC(=O)NC6=O)CC5)CC4)cc3)CC(C)(C)C(F)(F)F)CCOC(C)(C)C2)cc1` [AP6, (3S)-3-{5-[(4-{[(4R)-4′-{[{2-[(4R)-4-(4-Methoxyphenyl)-2,2-dimethyltetrahydro-2H-pyran-4-yl]ethyl}(3,3,3-trifluoro-2,2-dimethylpropyl)amino]methyl}-2,3,4,5-tetrahydro[biphenyl]-4-yl]methyl}piperazin-1-yl)carbonyl]-3-methyl-2-oxo-2,3-dihydro-1H-benzimidazol-1-yl}piperidine-2,6-dione], for which the GI50 with NCI-H295R cells (Homo sapiens, NCI-H295R, 168 h) stood at 0.068 µM. Further, the DC50 on SF-1 was 0.0041 µM.
For `COc1ccc([C@]2(CCN(Cc3ccc(C4=CCC(CN5CCN(C(=O)c6cccc7c6n(C)c(=O)n7C6CCC(=O)NC6=O)CC5)CC4)cc3)CC(C)(C)C(F)(F)F)CCOC(C)(C)C2)cc1` (stereo partly drawn) [Example AH4, 3-[4-({4-[(4′-{[{2-[(4R)-4-(4-Methoxyphenyl)-2,2-dimethyltetrahydro-2H-pyran-4-yl]ethyl}(3,3,3-trifluoro-2,2-dimethylpropyl)amino]methyl}-2,3,4,5-tetrahydro[biphenyl]-4-yl)methyl]piperazin-1-yl}carbonyl)-3-methyl-2-oxo-2,3-dihydro-1H-benzimidazol-1-yl]piperidine-2,6-dione] the same measures were 0.123 µM and 0.0057 µM.
For `COc1ccc([C@]2(CCN(Cc3ccc(C4=CC[C@H](CN5CCN(C(=O)c6ccc7c8c6NCCn8c(=O)n7[C@@H]6CCC(=O)NC6=O)CC5)CC4)cc3)CC(C)(C)C(F)(F)F)CCOC(C)(C)C2)cc1` [CF1, (3R)-3-{7-[(4-{[(4R)-4′-{[{2-[(4R)-4-(4-Methoxyphenyl)-2,2-dimethyltetrahydro-2H-pyran-4-yl]ethyl)(3,3,3-trifluoro-2,2-dimethylpropyl)amino]methyl}-2,3,4,5-tetrahydro[biphenyl]-4-yl]methyl}piperazin-1-yl)carbonyl]-2-oxo-5,6-dihydro-4H-imidazo[1,5,4-de]quinoxalin-1(2H)-yl}piperidine-2,6-dione], in the assay with NCI-H295R cells (Homo sapiens, NCI-H295R, 168 h), growth was halved (GI50) at 0.084 µM. Besides, it took 0.0051 µM to reach half-maximal degradation on SF-1 (DC50).
In the same order, the values of `COc1ccc([C@]2(CCN(CC(C)(C)C(F)(F)F)C[C@H]3CC[C@H](c4ccc(NC(=O)C5CC(Nc6ccc7c(c6)n(C)c(=O)n7C6CCC(=O)NC6=O)C5)cc4)CC3)CCOC(C)(C)C2)cc1` (stereo partly drawn) [BD6, 3-{[1-(2,6-Dioxopiperidin-3-yl)-3-methyl-2-oxo-2,3-dihydro-1H-benzimidazol-5-yl]amino)-N-[4-(trans-4-{[{2-[(4R)-4-(4-methoxyphenyl)-2,2-dimethyltetrahydro-2H-pyran-4-yl]ethyl}(3,3,3-trifluoro-2,2-dimethylpropyl)amino]methyl}cyclohexyl)phenyl]cyclobutanecarbox amide] are 0.057 µM and 0.003 µM.
For `COc1ccc([C@]2(CCN(Cc3ccc(C4=CC[C@H](C(=O)N5CCC(Nc6ccc7c(c6)n(C)c(=O)n7C6CCC(=O)NC6=O)CC5)CC4)c(F)c3)CC(C)(C)C(F)(F)F)CCOC(C)(C)C2)cc1` (stereo partly drawn) [BR3, 3-{5-[(1-{[(4R)-2′-Fluoro-4′-{[{2-[(4R)-4-(4-methoxyphenyl)-2,2-dimethyltetrahydro-2H-pyran-4-yl]ethyl)(3,3,3-trifluoro-2,2-dimethylpropyl)amino]methyl}-2,3,4,5-tetrahydro[biphenyl]-4-yl]carbonyl}piperidin-4-yl)amino]-3-methyl-2-oxo-2,3-dihydro-1H-benzimidazol-1-yl}piperidine-2,6-dione] the same measures were 0.023 µM and 0.0022 µM.
As for `COc1ccc([C@]2(CCN(Cc3ccc(C4=CC[C@H](C(=O)N5CCC(Nc6ccc7c8c6CCCn8c(=O)n7C6CCC(=O)NC6=O)CC5)CC4)c(F)c3)CC(C)(C)C(F)(F)F)CCOC(C)(C)C2)cc1` (single isomer, unassigned) [CG1, (3S) or (3R)-{7-[(1-{[(4R)-2′-Fluoro-4′-{[{2-[(4R)-4-(4-methoxyphenyl)-2,2-dimethyltetrahydro-2H-pyran-4-yl]ethyl}(3,3,3-trifluoro-2,2-dimethylpropyl)amino]methyl}-2,3,4,5-tetrahydro[biphenyl]-4-yl]carbonyl}piperidin-4-yl)amino]-2-oxo-5,6-dihydro-4H-imidazo[4,5,1-ij]quinolin-1(2H)-yl}piperidine-2,6-dione], it took 0.018 µM to inhibit growth in the assay with NCI-H295R cells by half (GI50). The molecule further yielded a DC50 on SF-1 of 0.0018 µM.
In turn, `COc1ccc([C@]2(CCN(Cc3ccc(C4=CC[C@H](C(=O)N5CCC(Nc6ccc7c(c6)CN(C6CCC(=O)NC6=O)C7=O)CC5)CC4)cc3)CC(C)(C)C(F)(F)F)CCOC(C)(C)C2)cc1` (stereo partly drawn) [BO4, 3-{5-[(1-{[(4R)-4′-{[{2-[(4R)-4-(4-Methoxyphenyl)-2,2-dimethyltetrahydro-2H-pyran-4-yl]ethyl)(3,3,3-trifluoro-2,2-dimethylpropyl)amino]methyl}-2,3,4,5-tetrahydro[biphenyl]-4-yl]carbonyl}piperidin-4-yl)amino]-1-oxo-1,3-dihydro-2H-isoindol-2-yl}piperidine-2,6-dione] returned a GI50 with NCI-H295R cells (Homo sapiens, NCI-H295R, 168 h) of 0.129 µM. At SF-1, it took 0.015 µM to reach half-maximal degradation (DC50).
As to `COc1ccc([C@]2(CCN(Cc3ccc(C4=CC[C@H](C(=O)N5CCC(Nc6ccc7c(c6)C(=O)N(C6CCC(=O)NC6=O)C7)CC5)CC4)cc3)CC(C)(C)C(F)(F)F)CCOC(C)(C)C2)cc1` (stereo partly drawn) [BS3, 3-{6-[(1-{[(4R)-4′-{[{2-[(4R)-4-(4-Methoxyphenyl)-2,2-dimethyltetrahydro-2H-pyran-4-yl]ethyl)(3,3,3-trifluoro-2,2-dimethylpropyl)amino]methyl}-2,3,4,5-tetrahydro[biphenyl]-4-yl]carbonyl}piperidin-4-yl)amino]-1-oxo-1,3-dihydro-2H-isoindol-2-yl}piperidine-2,6-dione], the GI50 in the assay with NCI-H295R cells (Homo sapiens, NCI-H295R, 168 h) stood at 0.07 µM. At SF-1, this molecule gave a DC50 of 0.014 µM.
Consider `COc1ccc([C@]2(CCN(Cc3ccc(C4=CC[C@H](C(=O)N5CCN(Cc6ccc7c8c6CN(C)CCn8c(=O)n7C6CCC(=O)NC6=O)CC5)CC4)c(F)c3)CC(C)(C)C(F)(F)F)CCOC(C)(C)C2)cc1` (stereo partly drawn) [CB10, 3-{8-[(4-{[(4R)-2′-Fluoro-4′-{[{2-[(4R)-4-(4-methoxyphenyl)-2,2-dimethyltetrahydro-2H-pyran-4-yl]ethyl}(3,3,3-trifluoro-2,2-dimethylpropyl)amino]methyl}-2,3,4,5-tetrahydro[biphenyl]-4-yl]carbonyl}piperazin-1-yl)methyl]-6-methyl-2-oxo-4,5,6,7-tetrahydroimidazo[4,5,1-jk][1,4]benzodiazepin-1(2H)-yl}piperidine-2,6-dione], for which it took 0.085 µM to inhibit growth in the assay on NCI-H295R cells (Homo sapiens, NCI-H295R, 168 h) by half (GI50). It took 0.013 µM to reach half-maximal degradation on SF-1 (DC50).
For `COc1ccc([C@]2(CCN(Cc3ccc4c(cnn4C4CC5(CCN(CC(=O)Nc6ccc7c(c6)n(C)c(=O)n7C6CCC(=O)NC6=O)CC5)C4)c3)CC(C)(C)C(F)(F)F)CCOC(C)(C)C2)cc1` (stereo partly drawn) [BA6, N-[1-(2,6-Dioxopiperidin-3-yl)-3-methyl-2-oxo-2,3-dihydro-1H-benzimidazol-5-yl]-2-[2-(5-{[{2-[(4R)-4-(4-methoxyphenyl)-2,2-dimethyltetrahydro-2H-pyran-4-yl]ethyl)(3,3,3-trifluoro-2,2-dimethylpropyl)amino]methyl}-1H-indazol-1-yl)-7-azaspiro[3.5]nonan-7-yl]acetamide] the same measures were 0.023 µM and 0.0049 µM.
In the same order, the values of `COc1ccc([C@]2(CCN(Cc3ccc(C4=CC[C@H](C(=O)N5CCN(Cc6ccc7c(c6)n(C)c(=O)n7C6CCC(=O)NC6=O)CC5)CC4)c(F)c3)CC(C)(C)C(F)(F)F)CCOC(C)(C)C2)cc1` (stereo partly drawn) [BQ4, 3-{5-[(4-{[(4R)-2′-Fluoro-4′-{[{2-[(4R)-4-(4-methoxyphenyl)-2,2-dimethyltetrahydro-2H-pyran-4-yl]ethyl}(3,3,3-trifluoro-2,2-dimethylpropyl)amino]methyl}-2,3,4,5-tetrahydro[biphenyl]-4-yl]carbonyl}piperazin-1-yl)methyl]-3-methyl-2-oxo-2,3-dihydro-1H-benzimidazol-1-yl}piperidine-2,6-dione] are 0.028 µM and 0.0045 µM.
In the assay on NCI-H295R cells (Homo sapiens, NCI-H295R, 168 h), `COc1ccc([C@]2(CCN(Cc3ccc(OC4CC5(CCN(CC(=O)Nc6ccc7c(c6)CN(C6CCC(=O)NC6=O)C7=O)CC5)C4)cc3)CC(C)(C)C(F)(F)F)CCOC(C)(C)C2)cc1` (stereo partly drawn) [Example AF1, N-[2-(2,6-Dioxopiperidin-3-yl)-1-oxo-2,3-dihydro-1H-isoindol-5-yl]-2-[2-(4-{[{2-[(4R)-4-(4-methoxyphenyl)-2,2-dimethyltetrahydro-2H-pyran-4-yl]ethyl}(3,3,3-trifluoro-2,2-dimethylpropyl)amino]methyl}phenoxy)-7-azaspiro[3.5]nonan-7-yl]acetamide] displayed a GI50 of 0.121 µM. The same molecule yielded a DC50 at SF-1 of 0.0069 µM.

By GI50 is commonly meant the concentration at which growth is held to half of that of the control. A high value points to lower sensitivity of the cells. As a reminder, the DC50 is the concentration giving 50% degradation. Read a high DC50 as a less potent degrader.

Source of the values: patent US12606533B2, “3-phenylpropylamine derivative” (DAIICHI SANKYO COMPANY, LIMITED, priority 2023, dated 2026).
